Data as given in patent US9783527B2, “Indazole ureas and method of use” (AbbVie Inc., priority 2014, dated 2017).

Biological target: human Nav1.7 (Homo sapiens (Human), UniProt Q15858)
Assay: FRET-based membrane potential assay, recombinant human sodium channel Nav1.7
Assay type: cell-based
Conditions: HEK293 cells stably expressing recombinant human Nav1.7; depolarization with veratridine (EC80) + scorpion venom
In short: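 IC50 derived by four-parameter Hill fit of percent inhibition of depolarization, measured as peak F440-480/F565-625 ratio over baseline. Stable human Nav1.7 HEK293 cells, dye-loaded with CC2-DMPE and DiSBAC2(3)/VABSC-1 at room temperature, received compound 3 min ahead of veratridine (EC80) plus scorpion venom.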

Chain of human Nav1.7 (Q15858 whole entry): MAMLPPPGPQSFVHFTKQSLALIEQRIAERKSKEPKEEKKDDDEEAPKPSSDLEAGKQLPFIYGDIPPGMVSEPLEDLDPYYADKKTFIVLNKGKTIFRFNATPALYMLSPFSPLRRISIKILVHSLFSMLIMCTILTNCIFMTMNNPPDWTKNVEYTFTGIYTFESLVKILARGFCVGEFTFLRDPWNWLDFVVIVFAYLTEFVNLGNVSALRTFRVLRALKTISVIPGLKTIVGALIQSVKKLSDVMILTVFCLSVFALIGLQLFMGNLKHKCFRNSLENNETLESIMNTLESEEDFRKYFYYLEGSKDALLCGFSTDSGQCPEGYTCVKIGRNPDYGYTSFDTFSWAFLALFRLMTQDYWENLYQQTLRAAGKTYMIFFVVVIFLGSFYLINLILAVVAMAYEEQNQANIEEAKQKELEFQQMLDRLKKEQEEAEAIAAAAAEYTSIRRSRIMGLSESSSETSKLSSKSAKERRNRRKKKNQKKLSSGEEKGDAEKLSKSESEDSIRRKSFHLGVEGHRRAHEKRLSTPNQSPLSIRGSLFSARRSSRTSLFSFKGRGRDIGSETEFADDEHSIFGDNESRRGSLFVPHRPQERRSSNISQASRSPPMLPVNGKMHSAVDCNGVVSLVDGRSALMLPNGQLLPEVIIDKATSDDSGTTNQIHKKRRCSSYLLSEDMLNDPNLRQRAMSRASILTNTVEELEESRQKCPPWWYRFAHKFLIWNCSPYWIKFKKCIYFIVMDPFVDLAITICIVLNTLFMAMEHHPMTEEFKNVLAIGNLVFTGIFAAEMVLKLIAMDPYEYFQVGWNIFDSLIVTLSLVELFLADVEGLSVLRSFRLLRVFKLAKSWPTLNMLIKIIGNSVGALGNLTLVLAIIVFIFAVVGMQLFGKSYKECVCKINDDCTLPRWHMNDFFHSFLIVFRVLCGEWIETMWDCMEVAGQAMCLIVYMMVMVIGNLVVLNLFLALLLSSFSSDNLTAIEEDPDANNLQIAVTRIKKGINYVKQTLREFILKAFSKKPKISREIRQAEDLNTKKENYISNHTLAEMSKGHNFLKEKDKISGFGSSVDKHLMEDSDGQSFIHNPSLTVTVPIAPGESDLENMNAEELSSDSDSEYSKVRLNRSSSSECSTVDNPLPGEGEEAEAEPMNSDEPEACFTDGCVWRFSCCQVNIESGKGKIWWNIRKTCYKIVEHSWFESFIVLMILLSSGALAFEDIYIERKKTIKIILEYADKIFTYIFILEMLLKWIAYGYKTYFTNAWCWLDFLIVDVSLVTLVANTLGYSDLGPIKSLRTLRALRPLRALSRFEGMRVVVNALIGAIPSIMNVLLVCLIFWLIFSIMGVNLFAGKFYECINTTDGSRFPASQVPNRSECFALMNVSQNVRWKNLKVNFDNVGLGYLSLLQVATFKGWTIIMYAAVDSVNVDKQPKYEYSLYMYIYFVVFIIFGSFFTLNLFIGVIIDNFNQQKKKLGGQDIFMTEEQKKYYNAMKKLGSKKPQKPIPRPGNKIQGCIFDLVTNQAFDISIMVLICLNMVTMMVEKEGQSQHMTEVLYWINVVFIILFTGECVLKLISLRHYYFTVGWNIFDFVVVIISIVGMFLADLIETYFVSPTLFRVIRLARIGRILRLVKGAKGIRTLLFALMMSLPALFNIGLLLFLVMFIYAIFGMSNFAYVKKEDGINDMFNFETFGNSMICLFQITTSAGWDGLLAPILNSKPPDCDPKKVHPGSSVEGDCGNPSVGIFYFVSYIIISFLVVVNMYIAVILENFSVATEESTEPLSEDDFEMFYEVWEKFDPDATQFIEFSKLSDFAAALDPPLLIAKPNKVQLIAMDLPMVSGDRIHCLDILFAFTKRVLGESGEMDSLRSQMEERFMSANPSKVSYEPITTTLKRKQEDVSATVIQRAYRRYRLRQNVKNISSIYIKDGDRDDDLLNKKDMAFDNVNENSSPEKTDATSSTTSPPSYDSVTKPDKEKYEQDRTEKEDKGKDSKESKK

Row | SMILES | IC50 [nM]
1 | O=C1N(c2cncnc2)CCN1c1cccc2c1cnn2-c1ccccc1F [Example 138, 1-[1-(2-fluorophenyl)-1H-indazol-4-yl]-3-(pyrimidin-5-yl)imidazolidin-2-one] | 3310
2 | O=C1NCCN1c1cccc2c1cnn2-c1ccccc1F [Example 57, 1-[1-(2-fluorophenyl)-1H-indazol-4-yl]imidazolidin-2-one] | 9640
3 | CC(C)c1cc(CN2CCN(c3cccc4c3cnn4-c3ccccc3F)C2=O)on1 [Example 249, 1-[1-(2-fluorophenyl)-1H-indazol-4-yl]-3-[(3-isopropyl-1,2-oxazol-5-yl)methyl]imidazolidin-2-one] | 2430
4 | O=C(CN1CCN(c2cccc3c2cnn3-c2ccccc2F)C1=O)NCc1cc(F)ccc1F [Example 174, N-(2,5-difluorobenzyl)-2-{3-[1-(2-fluorophenyl)-1H-indazol-4-yl]-2-oxoimidazolidin-1-yl}acetamide] | 849
5 | O=C(CC1CCCCC1)CN1CCN(c2cccc3c2cnn3-c2ccccc2F)C1=O [Example 136, 1-(3-cyclohexyl-2-oxopropyl)-3-[1-(2-fluorophenyl)-1H-indazol-4-yl]imidazolidin-2-one] | 928
6 | O=C1N(CC(=O)N2CCC[C@@H]2c2ccccc2)CCN1c1cccc2c1cnn2-c1ccccc1F [Example 128, 1-[1-(2-fluorophenyl)-1H-indazol-4-yl]-3-{2-oxo-2-[(2R)-2-phenylpyrrolidin-1-yl]ethyl}imidazolidin-2-one] | 746
7 | CC(C)OCC(=O)N1CCN(c2cccc3c2cnn3-c2ccccc2F)C1=O [Example 96, 1-[1-(2-fluorophenyl)-1H-indazol-4-yl]-3-(isopropoxyacetyl)imidazolidin-2-one] | 1640
8 | Cn1cc2cc(N3CCN(c4cccc5c4cnn5-c4ccccc4F)C3=O)ccc2n1 [Example 191, 1-[1-(2-fluorophenyl)-1H-indazol-4-yl]-3-(2-methyl-2H-indazol-5-yl)imidazolidin-2-one] | 2950
9 | O=C(CN1CCN(c2cccc3c2cnn3-c2ccccc2F)C1=O)NC1CCC(F)(F)CC1 [Example 356, N-(4,4-difluorocyclohexyl)-2-{3-[1-(2-fluorophenyl)-1H-indazol-4-yl]-2-oxoimidazolidin-1-yl}acetamide] | 1860
10 | Cc1nnc(CN2CCN(c3cccc4c3cnn4-c3ccc(C(F)(F)F)cc3)C2=O)s1 [Example 240, 1-[(5-methyl-1,3,4-thiadiazol-2-yl)methyl]-3-{1-[4-(trifluoromethyl)phenyl]-1H-indazol-4-yl}imidazolidin-2-one] | 13400
11 | Cc1cnc(CN2CCN(c3cccc4c3cnn4-c3ccccc3F)C2=O)nc1 [Example 219, 1-[1-(2-fluorophenyl)-1H-indazol-4-yl]-3-[(5-methylpyrimidin-2-yl)methyl]imidazolidin-2-one] | 5210
12 | Cc1cc(CN2CCN(c3cccc4c3cnn4-c3ccccc3F)C2=O)no1 [Example 199, 1-[1-(2-fluorophenyl)-1H-indazol-4-yl]-3-[(5-methyl-1,2-oxazol-3-yl)methyl]imidazolidin-2-one] | 2970
13 | O=C1NCCN1CCN1CCN(c2cccc3c2cnn3-c2ccccc2F)C1=O [Example 63, 1-[1-(2-fluorophenyl)-1H-indazol-4-yl]-3-[2-(2-oxoimidazolidin-1-yl)ethyl]imidazolidin-2-one] | 4120
14 | O=C(CN1CCN(c2cccc3c2cnn3-c2ccccc2)C1=O)N1CCCC1 [Example 277, 1-[2-oxo-2-(pyrrolidin-1-yl)ethyl]-3-(1-phenyl-1H-indazol-4-yl)imidazolidin-2-one] | 3060
15 | CC(C)CC(O)CN1CCN(c2cccc3c2cnn3-c2ccccc2F)C1=O (stereo not shown) [Example 123, 1-[1-(2-fluorophenyl)-1H-indazol-4-yl]-3-(2-hydroxy-4-methylpentyl)imidazolidin-2-one] | 346
16 | C[C@@]1(c2cccc(F)c2)C[C@H](N2CCN(c3cccc4c3cnn4-c3ccccc3F)C2=O)CO1 [Example 195, 2,5-anhydro-1,3,4-trideoxy-2-(3-fluorophenyl)-4-{3-[1-(2-fluorophenyl)-1H-indazol-4-yl]-2-oxoimidazolidin-1-yl}-D-erythro-pentitol] | 1390
17 | O=C(CN1CCN(c2cccc3c2cnn3-c2ccccc2F)C1=O)N1CCCC2(CC1)OCCO2 [Example 110, 1-[2-(1,4-dioxa-8-azaspiro[4.6]undec-8-yl)-2-oxoethyl]-3-[1-(2-fluorophenyl)-1H-indazol-4-yl]imidazolidin-2-one] | 2810
18 | CC(C)C(C)(O)CN1CCN(c2cccc3c2cnn3-c2ccccc2F)C1=O (stereo not shown) [Example 180, 1-[1-(2-fluorophenyl)-1H-indazol-4-yl]-3-(2-hydroxy-2,3-dimethylbutyl)imidazolidin-2-one] | 3230
19 | O=C1N(CC(O)CC2CCCC2)CCN1c1cccc2c1cnn2-c1ccccc1F (stereo not shown) [Example 135, 1-(3-cyclopentyl-2-hydroxypropyl)-3-[1-(2-fluorophenyl)-1H-indazol-4-yl]imidazolidin-2-one] | 904
20 | O=C(CN1CCN(c2cccc3c2cnn3-c2ccccc2F)C1=O)C1CCC1 [Example 164, 1-(2-cyclobutyl-2-oxoethyl)-3-[1-(2-fluorophenyl)-1H-indazol-4-yl]imidazolidin-2-one] | 635
21 | O=C1N(Cc2ccc(C(F)(F)F)cn2)CCN1c1cccc2c1cnn2-c1ccccc1F [Example 89, 1-[1-(2-fluorophenyl)-1H-indazol-4-yl]-3-{[5-(trifluoromethyl)pyridin-2-yl]methyl}imidazolidin-2-one] | 10600
22 | Cc1scnc1CN1CCN(c2cccc3c2cnn3-c2ccccc2F)C1=O [Example 245, 1-[1-(2-fluorophenyl)-1H-indazol-4-yl]-3-[(5-methyl-1,3-thiazol-4-yl)methyl]imidazolidin-2-one] | 207
23 | O=C1N(CC2CCCO2)CCN1c1cccc2c1cnn2-c1ccccc1F (stereo not shown) [Example 182, 1-[1-(2-fluorophenyl)-1H-indazol-4-yl]-3-(tetrahydrofuran-2-ylmethyl)imidazolidin-2-one] | 2620
24 | CNS(=O)(=O)N1CCN(c2cccc3c2cnn3-c2ccccc2F)C1=O [Example 62, 3-[1-(2-fluorophenyl)-1H-indazol-4-yl]-N-methyl-2-oxoimidazolidine-1-sulfonamide] | 1710
25 | CC(C)C[C@@](C)(O)CN1CCN(c2cccc3c2cnn3-c2ccccc2F)C1=O [Example 167, 1-[1-(2-fluorophenyl)-1H-indazol-4-yl]-3-[(2R)-2-hydroxy-2,4-dimethylpentyl]imidazolidin-2-one] | 893
26 | O=C1N(CC2COC2)CCN1c1cccc2c1cnn2-c1ccccc1F [Example 200, 1-[1-(2-fluorophenyl)-1H-indazol-4-yl]-3-(oxetan-3-ylmethyl)imidazolidin-2-one] | 3610
27 | COc1nccnc1CN1CCN(c2cccc3c2cnn3-c2ccccc2F)C1=O [Example 248, 1-[1-(2-fluorophenyl)-1H-indazol-4-yl]-3-[(3-methoxypyrazin-2-yl)methyl]imidazolidin-2-one] | 1040
28 | CC1CN(C(=O)CN2CCN(c3cccc4c3cnn4-c3ccccc3F)C2=O)CC(C)O1 (stereo not shown) [Example 70, 1-[2-(2,6-dimethylmorpholin-4-yl)-2-oxoethyl]-3-[1-(2-fluorophenyl)-1H-indazol-4-yl]imidazolidin-2-one] | 12200
